Measured values: paper PMC5602572, “New carboxamide derivatives bearing benzenesulphonamide as a selective COX-II inhibitor: Design, synthesis and structure-activity relationship” (PLoS ONE, 2017)
Like-named read-outs stand apart in the source and are kept apart here.

Legend:
[1] = test system: carrageenan induced rat paw edema; assay: carrageenan-induced rat paw edema bioassay; format: in vivo; conditions: % inhibition of carrageenan induced rat paw edema, intraperitoneal; for Anti-inflammatory activity, 0.5 h (%): 0.5 h after treatment; for Anti-inflammatory activity, 1 h (%): 1 h after treatment; for Anti-inflammatory activity, 2 h (%): 2 h after treatment; for Anti-inflammatory activity, 3 h (%): 3 h after treatment
Method: Male albino rats weighing 300 g where purchased from the Department of Zoology and Environmental Biology, University of Nigeria, Nsukka and kept at room temperature in a light controlled animal house. They were fasted with free access to water at least 12 h prior to the experiments. […] The positive control received celecoxib while the negative control received only the vehicle. Edema was produced by injecting 0.2 mL of a solution of 1% carrageenan in the hind paw. The rats were injected intraperitoneally with 1 mL suspension in 0.5% methylcellulose of the tested compounds and reference drug. Paw volume was measured by water displacement with a plethysmometer (UGO BASILE) before, 30 min, 1 h, 2 h and 3 h after treatment. The percentage was calculated by the following equation [25].
Anti-inflammatory activity (%) = (1-D/C)[…], where D represents the difference in paw volume before and after drug administration to the rats and C represents the difference of volume in the control groups. The approval for the use of animal was obtained from the University of Nigeria committee on experimental animal use. No sign of death was observed during the experiment.

[2] = Determination of LD50 in mice; conditions: mouse, in vivo, ip; male mice, intraperitoneal, observation 72 h
Method: Male mice were divided into various groups and test compounds were administered in various doses intraperitoneally. […] All behavioral changes and deaths during the observation periods were recorded. The percentage of death at each dose level was then calculated, converted to probits and the LD50 (μM/kg) values were calculated. To observe the health status of the mice, they were monitored 4 times a day. […] For the purpose of ameliorating the suffering of the dying mice, CO2 euthanasia was applied. All the dead mice were disposed in bio-safety containers in accordance with local standard protocols. The mortality rate in each group was calculated according to the formula: Mortality rate(%)=(the number of dead mice/the number of mice in the group)×100.

COX-2 = molecular target: T1, COX-2 (Ovis aries, UniProt P79208); assay: In vitro cyclooxygenase inhibitory assay (Cayman colorimetric COX (ovine) inhibitor screening kit), COX-2; format: biochemical; conditions: for inhibition at 2 µM: read-out: COX-2 (%) inhibition; for selectivity for COX-2 (in words): from COX-2/COX-1 % inhibition at 2.0 μM; for S I (selectivity COX-2/COX-1): ratio of % inhibition COX-2/COX-1 at 2.0 μM
T1 construct: purchased Cayman chemicals, USA
T1 sequence (P79208 17-603): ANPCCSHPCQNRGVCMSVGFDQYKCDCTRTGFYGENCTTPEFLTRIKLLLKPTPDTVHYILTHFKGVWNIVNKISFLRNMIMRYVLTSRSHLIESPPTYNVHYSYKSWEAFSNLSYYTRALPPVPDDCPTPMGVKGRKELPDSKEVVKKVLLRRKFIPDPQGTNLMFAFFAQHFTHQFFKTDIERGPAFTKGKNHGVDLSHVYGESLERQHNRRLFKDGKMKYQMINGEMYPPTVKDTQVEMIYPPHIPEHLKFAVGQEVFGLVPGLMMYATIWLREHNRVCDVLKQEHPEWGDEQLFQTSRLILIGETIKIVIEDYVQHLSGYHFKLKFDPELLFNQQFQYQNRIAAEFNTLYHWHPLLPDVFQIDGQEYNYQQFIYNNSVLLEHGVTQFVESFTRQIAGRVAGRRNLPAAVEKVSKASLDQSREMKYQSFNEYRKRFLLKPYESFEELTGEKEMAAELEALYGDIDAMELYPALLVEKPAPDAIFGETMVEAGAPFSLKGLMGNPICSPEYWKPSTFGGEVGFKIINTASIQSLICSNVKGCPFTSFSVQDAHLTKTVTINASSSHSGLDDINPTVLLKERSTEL
Method: (§1) The calculations were performed as per the kit guidelines.

COX-1 = molecular target: T2, COX-1 (Ovis aries, UniProt P05979); assay: In vitro cyclooxygenase inhibitory assay (Cayman colorimetric COX (ovine) inhibitor screening kit), COX-1; format: biochemical; conditions: read-out: COX-1 (%) inhibition
T2 construct: purchased Cayman chemicals, USA
T2 sequence (P05979 25-600): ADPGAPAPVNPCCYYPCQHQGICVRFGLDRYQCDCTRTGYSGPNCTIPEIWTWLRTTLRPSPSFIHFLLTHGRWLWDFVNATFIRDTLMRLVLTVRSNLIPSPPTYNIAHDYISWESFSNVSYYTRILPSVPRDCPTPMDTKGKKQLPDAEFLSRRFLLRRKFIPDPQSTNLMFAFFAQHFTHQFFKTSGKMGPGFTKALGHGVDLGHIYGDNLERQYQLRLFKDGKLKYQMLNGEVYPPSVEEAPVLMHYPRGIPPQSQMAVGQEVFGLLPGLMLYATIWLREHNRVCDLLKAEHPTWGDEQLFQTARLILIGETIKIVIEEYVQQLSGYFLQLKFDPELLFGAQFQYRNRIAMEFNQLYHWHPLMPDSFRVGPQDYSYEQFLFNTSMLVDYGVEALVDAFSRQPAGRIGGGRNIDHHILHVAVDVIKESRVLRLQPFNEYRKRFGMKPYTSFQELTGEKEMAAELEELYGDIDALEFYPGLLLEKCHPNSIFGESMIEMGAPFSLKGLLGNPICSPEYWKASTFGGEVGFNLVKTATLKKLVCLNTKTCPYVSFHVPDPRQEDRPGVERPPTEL
Method: as §1

SMILES | Anti-inflammatory activity, 0.5 h (%) [1] [%] | Anti-inflammatory activity, 1 h (%) [1] [%] | Anti-inflammatory activity, 2 h (%) [1] [%] | Anti-inflammatory activity, 3 h (%) [1] [%] | LD50 at 72 h [2] [µmol/kg] | inhibition at 2 µM (COX-2; concentration of 2.0 μM) [%] | selectivity for COX-2 (in words) (COX-2) | S I (selectivity COX-2/COX-1) (COX-2) | inhibition at 2 µM (COX-1; concentration of 2.0 μM) [%] | inhibition at 2 µM (COX-2) [%] | inhibition at 2 µM (COX-1) [%]
Cc1ccc(S(=O)(=O)N(C(=O)c2ccccc2)[C@@H](CC(C)C)C(=O)Nc2cc(C)ccn2)cc1 [Compound 7l, (2S)-4-Methyl-2-[N-(4-methylbenzenesulfonyl)-1-phenylformamido]-N-(4-methylpyridin-2-yl) pentanamide] | 26.15 | 19.88 | 18.28 | 16.67 | 12.5 | 19 | non-selective | 0.95 | 20 | – | –
Cc1ccnc(NC(=O)[C@H](Cc2cc3ccccc3[nH]2)N(C(=O)c2ccccc2)S(=O)(=O)c2ccc([N+](=O)[O-])cc2)c1 [Compound 7c, (2S)-3-(1H-indol-2-yl)-N-(4-methylpyridin-2-yl)-2-[N-(4-nitrobenzenesulfonyl)-1-phenylformamido]propanamide] | 49.23 | 62.35 | 75.75 | 88.89 | 8.3 | – | – | – | – | 70 | 2
Cc1ccnc(NC(=O)CN(C(=O)c2ccccc2)S(=O)(=O)c2ccc([N+](=O)[O-])cc2)c1 [Compound 7a, N-(4-methylpyridin-2-yl)-2-[N-(4-nitrobenzenesulfonyl)-1-phenylformamido]acetamide] | 24.62 | 18.82 | 14.24 | 11.85 | 12.9 | 49 | – | 3.5 | 14 | – | –
CCC(C)[C@@H](C(=O)Nc1cc(C)ccn1)N(C(=O)c1ccccc1)S(=O)(=O)c1ccc([N+](=O)[O-])cc1 (stereo partly drawn) [Compound 7e, (2S)-3-Methyl-N-(4-methylpyridin-2-yl)-2-[N-(4-nitrobenzenesulfonyl)-1-phenylformamido]pentanamide] | 26.15 | 25.88 | 19.38 | 16.05 | 13.1 | 17 | – | 4.25 | 4 | – | –
CCC(C)[C@@H](C(=O)Nc1cc(C)ccn1)N(C(=O)c1ccccc1)S(=O)(=O)c1ccc(C)cc1 (stereo partly drawn) [Compound 7m, (2S)-3-Methyl-2-[N-(4-methylbenzenesulfonyl)-1-phenylformamido]-N-(4-methylpyridin-2-yl) pentanamide] | 13.85 | 12.35 | 8.59 | 8.58 | 11.9 | 25 | non-selective | 1.47 | 17 | – | –
Cc1ccc(S(=O)(=O)N(CC(=O)Nc2cc(C)ccn2)C(=O)c2ccccc2)cc1 [Compound 7i, 2-[N-(4-methylbenzenesulfonyl)-1-phenylformamido]-N-(4-methylpyridin-2-yl)acetamide] | 24.62 | 23.53 | 16.78 | 12.47 | 18.2 | 18 | – | 6.00 | 3 | – | –
Cc1ccnc(NC(=O)[C@@H]2CC(O)CN2S(=O)(=O)c2ccc([N+](=O)[O-])cc2)c1 (stereo partly drawn) [Compound 7g, (2S)-4-Hydroxy-N-(4-methylpyridin-2-yl)-1-(4-nitrobenzenesulfonyl)pyrrolidine-2-carboxamide] | 46.92 | 53.53 | 58.84 | – | 9.9 | – | – | – | – | 20 | 18
Cc1ccc(S(=O)(=O)N2CCC[C@H]2C(=O)Nc2cc(C)ccn2)cc1 [Compound 7p, (2S)-1-(4-Methylbenzenesulfonyl)-N-(4-methylpyridin-2-yl)pyrrolidine-2-carboxamide] | 29.15 | 28.24 | 30.34 | 33.26 | 9.9 | – | – | – | – | 20 | 8
Cc1ccnc(NC(=O)[C@H](C(C)C)N(C(=O)c2ccccc2)S(=O)(=O)c2ccc([N+](=O)[O-])cc2)c1 [Compound 7f, (2S)-3-Methyl-N-(4-methylpyridin-2-yl)-2-[N-(4-nitrobenzenesulfonyl)-1-phenylformamido]butanamide] | 24.62 | 17.65 | 14.84 | 1.85 | 15.8 | 54 | – | 3.6 | 15 | – | –
Cc1ccnc(NC(=O)[C@H](Cc2ccccc2)N(C(=O)c2ccccc2)S(=O)(=O)c2ccc([N+](=O)[O-])cc2)c1 [Compound 7b, (2S)-N-(4-methylpyridin-2-yl)-2-[N-(4-nitrobenzenesulfonyl)-1-phenylformamido]-3-phenyl propanamide] | 32.31 | 17.06 | 17.03 | 12.96 | 14.2 | 52 | – | 6.5 | 8 | – | –
Cc1ccnc(NC(=O)[C@H](CC(C)C)N(C(=O)c2ccccc2)S(=O)(=O)c2ccc([N+](=O)[O-])cc2)c1 [Compound 7d, (2S)-4-Methyl-N-(4-methylpyridin-2-yl)-2-[N-(4-nitrobenzenesulfonyl)-1-phenylformamido]pentanamide] | 52.31 | 17.65 | 10.54 | 10.15 | 12.6 | 20 | – | 2.00 | 10 | – | –
Cc1ccc(-c2cc(C(F)(F)F)nn2-c2ccc(S(N)(=O)=O)cc2)cc1 [Celecoxib, celecoxib, reference compound] | 56.92 | 63.53 | 64.84 | 82.60 | 9.8 | – | – | – | – | – | –
